From the NIST ThermoML archive (doi:10.1016/j.jct.2009.07.022)
Several values for one entry are separate records, joined by “and”; a condition that tells them apart may be missing. Equal values may be shown once.

Key:
[1] = molar enthalpy of transition or fusion; settings: 298.15 K; Crystal; Clausius-Clapeyron Eq with Heat Capacity
[2] = Crystal, Calculated from knudsen effusion weight loss

c1ccc(-c2cccc(-c3ccccc3)c2-c2ccccc2)cc1 [1,2,3-triphenylbenzene]
Settings | molar enthalpy of transition or fusion [kcal/mol]
[1] | 32.1

[2]
Settings | vapor or sublimation pressure
373.15 K | 0.0001 kPa and 9.85e-05 kPa
375.03 K | 0.000124 kPa and 0.00012 kPa
377.27 K | 0.00016 kPa and 0.000158 kPa
379.15 K | 0.0002 kPa and 0.000199 kPa and 0.000195 kPa
381.02 K | 0.000244 kPa and 0.000247 kPa and 0.000237 kPa
383.27 K | 0.000316 kPa and 0.000305 kPa and 0.000301 kPa
385.27 K | 0.000384 kPa and 0.000369 kPa and 0.000365 kPa
387.12 K | 0.000458 kPa and 0.00046 kPa
389.05 K | 0.000548 kPa and 0.000555 kPa and 0.000543 kPa
391.28 K | 0.000733 kPa and 0.00073 kPa and 0.000715 kPa
393.1 K | 0.000871 kPa and 0.000865 kPa and 0.000872 kPa
394.98 K | 0.001033 kPa and 0.001062 kPa and 0.001027 kPa
